Laboratory results from paper PMC5940854, “Nitrothiophene carboxamides, a novel narrow spectrum antibacterial series: Mechanism of action and Efficacy” (Scientific Reports, 2018).

Tests used:
E. coli ∆acrB JW0451-2 = test: MIC, E. coli ∆acrB; type: cell-based; design: MIC ∆acrB: unit not given beside the values
Experimental: (§1) The inoculum used for all the experiments is derived from a single seed lot that is maintained as glycerol stocks at −80 °C and are sub cultured on LB plate for isolated colonies. Single colony of each strain is grown in M9 medium. All test compound stocks and dilutions are prepared in DMSO. Serial two-fold dilutions of compounds are prepared separately, with the concentrations ranging from 2 mg/mL to 0.015 mg/mL. To 150 µl (3–7 × 10^5 CFU/ml) of bacterial culture in 96 well microtitre plates, 3 μL compound from each of the dilutions is added to respective wells to obtain final concentrations ranging from 40 µg/mL to 0.3 µg/mL of the test compounds. Media control, culture control and appropriate reference drug controls are included. […] Growth is monitored by checking absorbance at 600 nm (A600). […] The samples from MIC and above concentrations are plated for MBC (Minimum Bactericidal Concentration). The samples are diluted 1:10 and plated on LB agar plates. […] The killing kinetics is determined by enumerating survivors at various time points following compound exposure. E. coli cells (~10^7 CFU/ml; A600 of 0.1) are treated with various concentrations (40 µg/mL to 0.3 µg/mL) of compounds in a 96-well microtitre plate. At various time intervals (0 to 8 h), 30 μl volumes of treated cultures are serially diluted and plated on LB agar plates. […] Data is expressed as the log10 CFU for each drug treatment.

[1] = biological target: T1, AcrB efflux pump in E. coli BW25113 (Escherichia coli, UniProt P31224); test: Nile red efflux assay (whole-cell competition); type: cell-based
T1 construct: endogenous in cells; host or cells: E. coli BW25113 (wild type)
T1 sequence (P0AE06 25-397): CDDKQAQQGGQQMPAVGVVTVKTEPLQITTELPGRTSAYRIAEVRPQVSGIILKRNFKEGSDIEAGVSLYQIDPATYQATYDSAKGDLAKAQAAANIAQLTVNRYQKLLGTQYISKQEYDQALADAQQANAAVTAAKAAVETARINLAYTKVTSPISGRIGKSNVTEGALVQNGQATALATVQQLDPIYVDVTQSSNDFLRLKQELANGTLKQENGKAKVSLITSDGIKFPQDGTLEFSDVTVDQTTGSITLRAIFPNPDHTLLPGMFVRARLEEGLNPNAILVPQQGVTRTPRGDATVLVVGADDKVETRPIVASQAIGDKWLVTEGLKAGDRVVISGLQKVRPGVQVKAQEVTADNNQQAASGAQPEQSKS
T1 sequence (P31224 whole entry): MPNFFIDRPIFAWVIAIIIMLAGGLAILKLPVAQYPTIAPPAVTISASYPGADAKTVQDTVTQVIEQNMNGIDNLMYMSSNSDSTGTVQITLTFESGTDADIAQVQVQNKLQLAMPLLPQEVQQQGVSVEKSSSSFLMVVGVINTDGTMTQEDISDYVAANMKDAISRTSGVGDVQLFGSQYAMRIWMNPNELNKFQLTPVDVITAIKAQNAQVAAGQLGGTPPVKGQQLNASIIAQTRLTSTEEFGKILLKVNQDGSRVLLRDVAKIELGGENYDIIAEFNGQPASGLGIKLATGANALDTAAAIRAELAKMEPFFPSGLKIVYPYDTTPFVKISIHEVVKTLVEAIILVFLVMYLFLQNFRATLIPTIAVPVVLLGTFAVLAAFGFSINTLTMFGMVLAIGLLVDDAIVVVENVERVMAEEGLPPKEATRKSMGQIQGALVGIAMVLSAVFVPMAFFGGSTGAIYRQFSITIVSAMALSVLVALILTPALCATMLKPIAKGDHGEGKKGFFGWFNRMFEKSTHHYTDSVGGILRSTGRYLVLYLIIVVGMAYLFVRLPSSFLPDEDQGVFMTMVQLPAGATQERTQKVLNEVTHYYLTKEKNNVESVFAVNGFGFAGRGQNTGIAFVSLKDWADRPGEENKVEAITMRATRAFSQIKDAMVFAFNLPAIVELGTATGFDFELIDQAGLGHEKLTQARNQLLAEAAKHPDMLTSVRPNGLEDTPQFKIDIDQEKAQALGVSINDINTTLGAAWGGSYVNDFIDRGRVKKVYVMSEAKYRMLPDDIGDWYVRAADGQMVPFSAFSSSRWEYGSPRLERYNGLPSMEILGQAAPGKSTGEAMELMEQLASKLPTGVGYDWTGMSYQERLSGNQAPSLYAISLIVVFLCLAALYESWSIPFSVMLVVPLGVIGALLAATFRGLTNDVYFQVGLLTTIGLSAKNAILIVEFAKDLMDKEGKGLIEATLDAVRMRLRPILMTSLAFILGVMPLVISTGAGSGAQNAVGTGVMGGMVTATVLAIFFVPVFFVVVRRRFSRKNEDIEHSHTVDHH
T1 sequence (P02930 23-493, further chain): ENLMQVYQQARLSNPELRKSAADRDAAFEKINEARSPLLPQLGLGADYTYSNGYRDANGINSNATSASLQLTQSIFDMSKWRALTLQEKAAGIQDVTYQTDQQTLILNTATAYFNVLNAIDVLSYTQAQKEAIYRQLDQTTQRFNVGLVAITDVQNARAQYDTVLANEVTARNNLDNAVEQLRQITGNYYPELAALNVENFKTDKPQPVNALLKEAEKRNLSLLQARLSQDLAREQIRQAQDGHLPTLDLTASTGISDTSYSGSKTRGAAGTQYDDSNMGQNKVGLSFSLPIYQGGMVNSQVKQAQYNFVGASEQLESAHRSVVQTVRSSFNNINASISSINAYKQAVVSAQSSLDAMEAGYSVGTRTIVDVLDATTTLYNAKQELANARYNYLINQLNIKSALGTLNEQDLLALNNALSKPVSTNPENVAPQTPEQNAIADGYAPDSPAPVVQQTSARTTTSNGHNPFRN
Experimental: The Nile red assay is adopted from Bohnert et al.[18]. An overnight culture of E. coli strain BW25113 is harvested and is resuspended in 20 mM potassium phosphate buffer (pH 7.0) containing 1 mM MgCl2 (PPB). The cells are adjusted to an A660 of 1.0 in PPB and aliquoted into glass tubes (2 ml each). Carbonylcyanide-m-chlorophenylhydrazone (CCCP; a protonophore that uncouples the electron transport chain and thus inhibits AcrB mediated efflux) is added to a final concentration of 10 µM (5 mM stock solution in 50% DMSO) and incubated for 15 minutes before adding the potential competitor at desired concentrations. Nile red is then added (stock solution of 5 mM in 10% dimethyl formamide-90% ethanol [vol/vol]) to a final concentration of 5 µM. The cell suspension is incubated at room temperature on a shaker for 3 hours. The cells are harvested and resuspended in 2 ml PPB in the presence of the competitor. The cell suspension is aliquoted in a fluorimeter cuvette, to which, 100 µl of 1 M Glucose is added to activate the electron transport chain. The rate of efflux is measured by Tefflux50, it is the time taken for 50% of Nile red to be effluxed out in presence of the compounds. The fluorescence is measured (Excitation 552 nm, Emission 636 nm) for 200 seconds.

[2] = system: E. coli clinical isolates; test: MIC on panel of E. coli clinical isolates; type: cell-based
[3] = system: E. coli ∆nfsAB & ∆acrB+nfnB; design: unit not given beside the values
Experimental: as §1

COc1cc(-c2csc(NC(=O)c3ccc([N+](=O)[O-])s3)n2)ccc1Cl [compound 20, N-(4-(4-chloro-3-methoxyphenyl)thiazol-2-yl)-5-nitrothiophene-2-carboxamide]
72.65 s: Tefflux50 ([1]; 27µM compound)
0.3 µg/mL: MIC (E. coli ∆acrB JW0451-2; Escherichia coli, read-out: MIC acrB)
104.21 s: Tefflux50 ([1]; 81µM compound)
2 µg/mL: MIC ([2]; strain SEC012) | MIC ([2]; strain SEC016) | MIC ([2]; strain SEC019) | MIC ([2]; strain SEC029) | MIC ([2]; strain SEC033) | MIC ([2]; strain SEC040) | MIC ([2]; strain SEC045) | MIC ([2]; strain SEC053) | MIC ([2]; strain SEC054) | MIC ([2]; strain SEC055) | MIC ([2]; strain SEC059) | MIC ([2]; strain SEC063) | MIC ([2]; strain SEC065) | MIC ([2]; strain SEC067) | MIC ([2]; strain SEC077) | MIC ([2]; strain SEC079)
0.6 to 10 µg/mL: MIC Range ([2]; 75 E.coli clinical isolates)
71.14 s: Tefflux50 ([1]; 9µM compound)
0.6: MIC ∆nfsAB & ∆acrB+nfnB [3]
0.06 µg/mL: MIC ([2]; strain SEC017)
0.3: MIC ∆acrB (E. coli ∆acrB JW0451-2; Table S11)
4 µg/mL: MIC ([2]; strain SEC022) | MIC ([2]; strain SEC025) | MIC ([2]; strain SEC061) | MIC ([2]; strain SEC072) | MIC ([2]; strain SEC075) | MIC ([2]; strain SEC076) | MIC ([2]; strain SEC078) | MIC ([2]; strain SEC080)
5 µg/mL: MIC50 ([2]; Escherichia coli, 75 E.coli clinical isolates, 50% clinical isolates)
10 µg/mL: MIC90 ([2]; Escherichia coli, 75 E.coli clinical isolates, 90% clinical isolates)
69.24 s: Tefflux50 ([1]; 1µM compound, time for 50% of Nile red to be effluxed, read for 200 seconds)
100 µM: Concentration of compound required for complete inhibition of Nile red efflux (Tefflux50 >200 seconds) ([1]; E. coli BW25113)
8 µg/mL: MIC ([2]; strain SEC001) | MIC ([2]; strain SEC002) | MIC ([2]; strain SEC003) | MIC ([2]; strain SEC004) | MIC ([2]; strain SEC005) | MIC ([2]; strain SEC006) | MIC ([2]; strain SEC007) | MIC ([2]; strain SEC008) | MIC ([2]; strain SEC011) | MIC ([2]; strain SEC013) | MIC ([2]; strain SEC014) | MIC ([2]; strain SEC015) | MIC ([2]; strain SEC020) | MIC ([2]; strain SEC023) | MIC ([2]; strain SEC024) | MIC ([2]; strain SEC026) | MIC ([2]; strain SEC032) | MIC ([2]; strain SEC034) | MIC ([2]; strain SEC035) | MIC ([2]; strain SEC036) | MIC ([2]; strain SEC039) | MIC ([2]; strain SEC041) | MIC ([2]; strain SEC042) | MIC ([2]; strain SEC043) | MIC ([2]; strain SEC044) | MIC ([2]; strain SEC046) | MIC ([2]; strain SEC048) | MIC ([2]; strain SEC049) | MIC ([2]; strain SEC050) | MIC ([2]; strain SEC051) | MIC ([2]; strain SEC057) | MIC ([2]; strain SEC058) | MIC ([2]; strain SEC060) | MIC ([2]; strain SEC064) | MIC ([2]; strain SEC068) | MIC ([2]; strain SEC069) | MIC ([2]; strain SEC070) | MIC ([2]; strain SEC073) | MIC ([2]; strain SEC074)
200 s: Tefflux50 ([1]; 100µM compound) | Tefflux50 ([1]; 200µM compound) | Tefflux50 ([1]; 400µM compound)
1 µg/mL: MIC ([2]; strain SEC018) | MIC ([2]; strain SEC021) | MIC ([2]; strain SEC028) | MIC ([2]; strain SEC031) | MIC ([2]; strain SEC037) | MIC ([2]; strain SEC052) | MIC ([2]; strain SEC062) | MIC ([2]; strain SEC071)
0.25 µg/mL: MIC ([2]; strain SEC038) | MIC ([2]; strain SEC047)
